Assay results published in paper PMC7796460, “Relation of Metal-Binding Property and Selective Toxicity of 8-Hydroxyquinoline Derived Mannich Bases Targeting Multidrug Resistant Cancer Cells” (Cancers, 2021).

Tests used:
MDCK cells = assay: MTT viability assay, MDCK; format: cell-based, canine; settings: Canis lupus familiaris, 72 h, MTT 72 h
Source text: (§1) MDCK II canine kidney cells, A431 epidermoid carcinoma cells, the human uterine sarcoma cell lines MES-SA and the doxorubicin selected MES-SA-Dx5 were obtained from ATCC (MDCK II: No. CRL-2936™, A431: No. CRL-1555™, MES-SA: No. CRL-1976™, MES-SA/Dx5: No. CRL-1977™). ABCB1 was expressed in A431 and MES-SA cells using lentiviral transduction. The human cervix carcinoma cell line KB-3-1 and the vinblastine selected KB-v1were kind gifts from Dr. Michael M. Gottesman, National Institutes of Health. The phenotype of the resistant cells was verified using cytotoxicity assays. MDCK-B1 and MDCK-MM were established by the Sleeping Beauty transposon-based gene delivery system. OVCAR-8 and NCI-ADRres cells (obtained from the Division of Cancer Treatment and Diagnosis (DCTD) Tumor Repository (National Cancer Institute, Frederick, MD, USA)) were cultivated in RPMI-1640 (Sigma Aldrich, Budapest, Hungary), and other cell lines were cultivated in Dulbecco’s Modified Eagle Medium (DMEM, Sigma Aldrich, Budapest, Hungary), supplemented with 10% fetal bovine serum, 5 mM glutamine, and 50 unit/mL penicillin and streptomycin (Life Technologies, Carlsbad, CA, USA). All cell lines were cultivated at 37 °C, 5% CO2.
(§2) MTT viability assays were performed as described earlier with minor modifications. Briefly, cells were seeded into 96-well tissue culture plates (Sarstedt, Newton, NC, USA/Orange, Braine-l’Alleud, Belgium) at a density of 5000 cells/well and allowed to attach overnight. Test compounds were added to achieve the required final concentration in a final volume of 100 µL per well. After an incubation period of 72 h, the supernatant was removed and fresh medium containing the MTT reagent (0.083 mg/mL) was added. Incubation with MTT at 37 °C was terminated after 1 h by removing the supernatant and lysing the cells with 100 µL DMSO per well. Viability of the cells was measured spectrophotometrically based on the absorbance values at 540 nm using either a Perkin Elmer Victor X3 or an EnSpire microplate reader. Data were background corrected by subtraction of the signal obtained from unstained cell lysates and normalized to untreated cells. Curves were fitted by Prism software (GraphPad Software Inc., San Diego, CA, USA) using the sigmoidal dose-response model (comparing variable and fixed slopes). […] Significance was calculated using unpaired t-tests; results are given as *: p ≤ 0.05, **: p ≤ 0.01, ***: p ≤ 0.001, ****: p ≤ 0.0001.

MES-SA/B1 cells [1] = assay: TXRF intracellular iron levels, MES-SA/B1; format: cell-based, human; settings: for Intracellular iron levels: MES-SA/B1, 25 µM holo-transferrin 4 h, then 5 µM ligand 8 h (Figure 4A)
Experimental: Cells were seeded to 6-well plates in a density of 1.5 Mio cells/well and allowed to attach overnight. Following a washing step with phosphate buffered saline (PBS), cells were incubated in serum free DMEM. For the iron-level measurements, cells were preloaded with 25 µM holo-transferrin for 4 h and, after a washing step with serum free DMEM, cells were incubated with 5 µM of each ligand for 8 h. For the detection of copper levels, cells were treated with 1 µM of the ligands in the presence of 5 µM CuCl2 for 4 h. Following incubation, cells were harvested upon trypsination, washed twice with PBS, counted and the resulting pellets were digested in 20 μL of 30% H2O2, 80 μL of 65% HNO3. 10 μL of 15 µg/mL Ga(NO3)3 (in nitric acid) was added as an internal standard upon digestion for 24 h at room temperature. From the resulting solutions, 2 μL were pipetted on the quartz reflectors used for total-reflection X-ray fluorescence (TXRF) analysis. For the determination of the intracellular Cu content, the TXRF method was used as previously reported. Briefly, all determinations were performed on an Atomika 8030C TXRF spectrometer (Atomika Instruments GmbH, Oberschleissheim, Germany). The stock solution of 1000 mg/L Ga was purchased from Merck (Darmstadt, Germany). The Kα line used for determination of Fe and Cu were at 6.403 and 8.047 keV. […] Significance was calculated using unpaired t-tests; results are given as *: p ≤ 0.05, **: p ≤ 0.01, ***: p ≤ 0.001, ****: p ≤ 0.0001.
Figure 4 Effect of the compounds on intracellular metal levels. (A) Iron levels of MES-SA (open columns) and MES-SA/B1 cells in absence (dark red squared columns) and presence of Pgp inhibitor Tariquidar (bright red squared columns). Cells were loaded with 25 µM holo-transferrin (4 h), followed by an incubation (8 h) without (ctr) or with 5 µM of ligands Q-1, Q-2, Q-3, and Q-4. […] (B) Cellular copper levels measured following a 4 h co-administration of compounds Q-1, Q-2, Q-3, and Q-4 (1 µM) and CuCl2 (5 µM) in MES-SA (open columns), MES-SA/Dx5 (filled columns) and MES-SA-B1 (squared columns) cells. Significance is given as *: p ≤ 0.05, **: p ≤ 0.01, ***: p ≤ 0.001.

MES-SA/B1 cells [2] = assay: MTT viability assay, MES-SA/B1; format: cell-based, human; settings: for IC50: Homo sapiens, MES-SA, 72 h, MTT 72 h
Source text: as §1, §2

A431 cells = assay: MTT viability assay, A431; format: cell-based; settings: Homo sapiens, A-431, 72 h, MTT 72 h
Source text: as §1, §2

MDCK-B1 cells = assay: MTT viability assay, MDCK-B1 (wild-type Pgp); format: cell-based, canine; settings: for IC50: Canis lupus familiaris, 72 h, MTT 72 h
Source text: as §1, §2

KB-v1 cells = assay: MTT viability assay, KB-v1; format: cell-based; settings: Homo sapiens, KB-V1, 72 h, MTT 72 h
Source text: as §1, §2

MES-SA/Dx5 cells = assay: MTT viability assay, MES-SA/Dx5; format: cell-based, human; settings: for IC50: Homo sapiens, MES-SA/Dx5, Table S1, calculated as ligand equivalents, read-out: IC50 Dx5; for IC50 / SR: absence of TQ; for Effect of co-administration of CuCl2 on toxicity: MDR MES-SA/Dx5, increasing concentrations of CuCl2, MTT 72 h (Figure 2I-L); for Effect of co-incubation with iron(III) on cytotoxicity: MES-SA/Dx5, increasing concentrations of FeCl3, MTT 72 h (Figure 2A-D); for SR: Table S1, IC50 Pgp negative divided by Pgp positive cells; for SR_TQ: Table S1, presence of 1 µM TQ; for Selective toxicity in the presence of 50 µM copper(II): MES-SA vs. MES-SA/Dx5, 50 µM copper(II); for MDR-selective toxicity with excess iron ions: MES-SA vs. MES-SA/Dx5, co-administered FeCl3
Source text: as §1, §2

[3] = presence of 1 µM Tariquidar (values in brackets)
[4] = IC50 MES-SA vs. MES-SA/B1, absence of Tariquidar
[5] = IC50 MES-SA vs. MES-SA/B1, presence of 1 µM Tariquidar (brackets)
[6] = IC50 MDCK vs. MDCK-B1, absence of Tariquidar
[7] = IC50 MDCK vs. MDCK-B1, presence of 1 µM Tariquidar (brackets)
[8] = IC50 MES-SA vs. MES-SA/Dx5, absence of Tariquidar
[9] = IC50 MES-SA vs. MES-SA/Dx5, presence of 1 µM Tariquidar (brackets)
[10] = Table 2, value in brackets (Tariquidar as in Table 1)
[11] = Table 2, value outside brackets

SMILES	IC50 (MDCK cells; absence of Tariquidar) [µM]	IC50 (MDCK cells; [3]) [µM]	IC50 (MES-SA/B1 cells [2]; absence of Tariquidar) [µM]	IC50 (MES-SA/B1 cells [2]; [3]) [µM]	SR MES-SA/B1 (MES-SA/B1 cells [2]; [4])	SR MES-SA/B1 (MES-SA/B1 cells [2]; [5])	IC50 (A431 cells; absence of Tariquidar) [µM]	IC50 (A431 cells; [3]) [µM]	IC50 (MDCK-B1 cells; absence of Tariquidar) [µM]	IC50 (MDCK-B1 cells; [3]) [µM]	SR MDCK-B1 (MDCK-B1 cells; [6])	SR MDCK-B1 (MDCK-B1 cells; [7])	IC50 (KB-v1 cells; absence of Tariquidar) [µM]	IC50 (KB-v1 cells; [3]) [µM]	IC50 (MES-SA/Dx5 cells) [µM]	SR MES-SA/Dx5 (MES-SA/Dx5 cells; [8])	SR MES-SA/Dx5 (MES-SA/Dx5 cells; [9])	Effect of co-administration of CuCl2 on toxicity (MES-SA/Dx5 cells)	Effect of co-incubation with iron(III) on cytotoxicity (MES-SA/Dx5 cells)	SR MES-SA/Dx5 (Table 2) (MES-SA/Dx5 cells; [10])	further results
Oc1cccc2cccnc12 [Compound Q-1, 8-Hydroxyquinoline]	3.27 ± 1.24	3.08	3.68 ± 0.95	4.92	1.14	1.03	2.35 ± 0.92	2.9	4.58 ± 1.75	15.2	0.71	0.20	8.71 ± 4.43	10.8	2.46 ± 0.69	1.70	1.73	increased the toxicity	did not influence the cytotoxicity	1.73	Intracellular iron levels (MES-SA/B1 cells [1]): negligible; SR MES-SA/Dx5 (Table 2) (MES-SA/Dx5 cells; [11]): 1.70; SR (MES-SA/Dx5 cells): 1.70; SR_TQ (MES-SA/Dx5 cells): 1.73
Oc1c(CN2CCOCC2)ccc2cccnc12 [Compound Q-2, 7-(morpho-lino-methyl)quinolin-8-ol]	9.15 ± 3.51	11.1	3.12 ± 0.28	3.6	2.23	1.29	3.31 ± 1.61	3.18	12 ± 7.84	12.1	0.76	0.92	6.42 ± 2.19	11.3	3.27 ± 0.39	2.13	0.85	increased the toxicity	selectively protected MES-SA/Dx5 cells	0.85	SR MES-SA/Dx5 (Table 2) (MES-SA/Dx5 cells; [11]): 2.13; SR (MES-SA/Dx5 cells): 2.13; SR_TQ (MES-SA/Dx5 cells): 0.85
Oc1c(CN2CCCCC2)ccc2cccnc12 [Compound Q-3, 7-(piperidin-1-ylmethyl)quinolin-8-ol]	7.61 ± 3.06	10.2	0.83 ± 0.02	1.5	4.95	1.99	3.91 ± 0.83	4.09	3.22 ± 1.02	12.4	2.36	0.82	1.56 ± 0.57	7.47	0.86 ± 0.26	4.75	0.95	not further sensitized	selectively protected MES-SA/Dx5 cells	0.95	Intracellular iron levels (MES-SA/B1 cells [1]): drop of intracellular iron levels below baseline levels; Selective toxicity in the presence of 50 µM copper(II) (MES-SA/Dx5 cells): completely abrogated; MDR-selective toxicity with excess iron ions (MES-SA/Dx5 cells): significantly reduced; SR MES-SA/Dx5 (Table 2) (MES-SA/Dx5 cells; [11]): 4.75; SR (MES-SA/Dx5 cells): 4.75; SR_TQ (MES-SA/Dx5 cells): 0.95
Oc1c(CNCc2ccccc2F)cc(Cl)c2cccnc12 [Compound Q-4, 5-chloro-7-((2-fluorobenzylamino)methyl)quinolin-8-ol]	4.55 ± 1.53	5.92	0.3 ± 0.06	1.03	9.24	2.16	5.82 ± 1.15	4.54	0.89 ± 0.35	6.95	5.13	0.85	0.27 ± 0.12	2.27	0.2 ± 0.06	13.68	0.68	not further sensitized	selectively protected MES-SA/Dx5 cells	0.68	Intracellular iron depletion in the presence of the Pgp inhibitor TQ (MES-SA/B1 cells [1]; MES-SA/B1, 5 µM ligand 8 h, with Tariquidar): abrogated; Intracellular iron levels (MES-SA/B1 cells [1]): marked, selective iron depletion; Selective toxicity in the presence of 50 µM copper(II) (MES-SA/Dx5 cells): completely abrogated; MDR-selective toxicity with excess iron ions (MES-SA/Dx5 cells): significantly reduced; SR MES-SA/Dx5 (Table 2) (MES-SA/Dx5 cells; [11]): 13.68; SR (MES-SA/Dx5 cells): 13.68; SR_TQ (MES-SA/Dx5 cells): 0.68
